Results on five compounds are retold here after patent US8003666B2, “Hydrate for medical purposes” (priority 2006, dated 2011).

For one data set, the system named is P. aeruginosa, 32104. Briefly: Antibacterial activity MIC, Japanese Society of Chemotherapy standard procedure. The following applies: Pseudomonas aeruginosa.
The test system of the next data set is S. epidermidis, 56500. The description is as above. The following applies: Staphylococcus epidermidis.
The next data set relates to E. coli NIHJ. The description is as above. The following applies: Escherichia coli.
Another data set concerns S. aureus, 209P. The description is as above. The following applies: Staphylococcus aureus.
The subject of the next data set is P. vulgaris, 08601. The data set is described as above. Conditions: Proteus vulgaris. In kind it is cell-based.
For a further data set, the system named is S. pneumoniae, J24. Described as above. The following applies: Streptococcus pneumoniae.
Another data set concerns S. marscecens, 10100. The description is as above.
For a further data set, the system named is E. faecalis, ATCC 19433. The data set is described as above. The following applies: Enterococcus faecalis, ATCC19433.
The test system of a further data set is S. aureus, 87037. The description is as above. Conditions: Staphylococcus aureus.
In a further data set the test system is P. aeruginosa, 32121. The description is as above. The following applies: Pseudomonas aeruginosa.
Data set [1] in a line: Change in moisture sorption and desorption after thermal dehydration. In kind it is physicochemical. The following applies: thermal dehydration (60° C.); FIG. 6. The procedure:
Change in moisture sorption and desorption after thermal dehydration (60° C.) was examined for 7-[(7S)-7-amino-7-methyl-5-azaspiro[2.4]heptan-5-yl]-6-fluoro-1-[(1R,2S)-2-fluorocyclopropyl]-8-methoxy-1,4-dihydro-4-oxoquinoline-3-carboxylic acid hemihydrate obtained in Example 1.

For data set [2], the system named is Mycobacterium tuberculosis (sensitive bacteria). The experiment in a line: Anti-mycobacterium tuberculosis activity MIC, sensitive bacteria. Type of data set: cell-based.
A short description of data set [3]: Crystal stability on storage at controlled relative humidity. Type of data set: physicochemical. Conditions: 25° C., 3 days. The procedure:
Weight change and crystalline form were examined as to 7-[(7S)-7-amino-7-methyl-5-azaspiro[2.4]heptan-5-yl-6-fluoro-1-[(1R,2S)-2-fluorocyclopropyl]-8-methoxy-1,4-dihydro-4-oxoquinoline-3-carboxylic acid hemihydrate obtained in Example 1 by being stored under the condition of 0, 52 or 93% of relative humidity, at 25° C. for 3 days. The crystalline form was evaluated by measuring with powder X-ray diffraction and thermal analysis.

The format of data set [4] is physicochemical. How it is done: 7-[(7S)-7-amino-7-methyl-5-azaspiro[2.4]heptan-5-yl]-6-fluoro-1-[(1R,2S)-2-fluorocyclopropyl]-8-methoxy-1,4-dihydro-4-oxoquinoline-3-carboxylic acid hemihydrate obtained in Example 1 was each stored for 2 weeks under wet heat condition (40° C., 75% RH), dry heat condition (50° C., of 0% RH) and photo irradiation condition.
The subject of a further data set is E. coli E77156 strain. The experiment in a line: Therapeutic efficacy in rat simple cystitis model (E. coli). Conditions: orally once at 5, 20 and 80 mg/kg on the next day of infection, in comparison with the count at beginning of the treatment, FIG. 2. In kind it is in vivo.
A short description of data set [5]: Change in crystalline form after thermal dehydration. The following applies: X-ray diffraction on thermal treatments; FIG. 7. In kind it is physicochemical. From the text:
Change in crystalline form by thermal treatment was examined for 7-[(7S)-7-amino-7-methyl-5-azaspiro[2.4]heptan-5-yl]-6-fluoro-1-[(1R,2S)-2-fluorocyclopropyl]-8-methoxy-1,4-dihydro-4-oxoquinoline-3-carboxylic acid hemihydrate obtained in Example 1.

Data set [6] can be described thus: Moisture sorption and desorption behavior. In kind it is physicochemical. The following applies: atmospheric pressure type automatic water vapor adsorption device; FIG. 5. From the text:
Moisture sorption and desorption behavior was examined with an atmospheric pressure type automatic water vapor adsorption device for 7-[(7S)-7-amino-7-methyl-5-azaspiro[2.4]heptan-5-yl]-6-fluoro-1-[(1R,2S)-2-fluorocyclopropyl]-8-methoxy-1,4-dihydro-4-oxoquinoline-3-carboxylic acid hemihydrate obtained in Example 1.

One may read the MIC as the least concentration at which growth counts as inhibited. Higher therefore signals weaker potency.

≈ marks a conversion by molar mass, not a printed value. A value given as a limit tells only on which side of the number the result lay.

Regarding `O=C(O)c1cn(C2CC2)c2cc(N3CCNCC3)c(F)cc2c1=O` [CPFX, ciprofloxacin], the MIC against P. aeruginosa, 32104 is 0.05 µg/mL (≈ 0.151 µM); in the data set on S. epidermidis, 56500, 0.2 µg/mL (≈ 0.604 µM); with E. coli NIHJ it was at most 0.003 µg/mL; against S. aureus, 209P, 0.1 µg/mL (≈ 0.302 µM); in the data set with P. vulgaris, 08601 it was at most 0.003 µg/mL; against S. pneumoniae, J24, 0.39 µg/mL (≈ 1.18 µM). The MIC is 0.025 µg/mL (≈ 0.0754 µM) against S. marscecens, 10100; 0.78 µg/mL (≈ 2.35 µM) in the data set with E. faecalis, ATCC 19433; above 6.25 µg/mL against S. aureus, 87037; 0.025 µg/mL (≈ 0.0754 µM) with P. aeruginosa, 32121.

For the compound `COc1c(N2CCNC(C)C2)c(F)cc2c(=O)c(C(=O)O)cn(C3CC3)c12` (centres unmarked) [GTFX, gatifloxacin], the MIC against P. aeruginosa, 32104 was 0.2 µg/mL (≈ 0.533 µM); with S. epidermidis, 56500, 0.2 µg/mL (≈ 0.533 µM); in the data set on E. coli NIHJ it was 0.006 µg/mL (≈ 0.016 µM); with S. aureus, 209P, 0.05 µg/mL (≈ 0.133 µM); in the data set on P. vulgaris, 08601 it was 0.006 µg/mL (≈ 0.016 µM); in the data set with S. pneumoniae, J24 it was 0.2 µg/mL (≈ 0.533 µM). The MIC stood at 0.1 µg/mL (≈ 0.266 µM) against S. marscecens, 10100; 0.39 µg/mL (≈ 1.04 µM) against E. faecalis, ATCC 19433; 1.56 µg/mL (≈ 4.16 µM) against S. aureus, 87037; 0.1 µg/mL (≈ 0.266 µM) against P. aeruginosa, 32121.

Take `COc1c(N2CC3(CC3)[C@](C)(N)C2)c(F)cc2c(=O)c(C(=O)O)cn([C@@H]3C[C@@H]3F)c12` [Hemihydrate, 7-[(7S)-7-Amino-7-methyl-5-azaspiro[2.4]heptan-5-yl]-6-fluoro-1-[(1R,2S)-2-fluorocyclopropyl]-8-methoxy-1,4-dihydro-4-oxoquinoline-3-carboxylic acid hemihydrate]: the MIC was found to be 0.39 µg/mL in the data set on P. aeruginosa, 32104; 0.1 µg/mL against S. epidermidis, 56500; 0.025 µg/mL in the data set on E. coli NIHJ; 0.03 µg/mL in data set [2] (H37RV, strain H37Rv); 0.03 µg/mL in data set [2] (strain Kurono); 0.03 µg/mL in [2] (strain Ravenel). Besides, the MIC in data set [2] (strain TB-s 2), in data set [2] (strain TB-s 3), in data set [2] (strain TB-s 4), in data set [2] (strain TB-s 5), in data set [2] (strain TB-s 6) and in [2] (strain TB-s 7) was 0.06 µg/mL throughout. The MIC is 0.03 µg/mL in [2] (strain TB-s 8); 0.06 µg/mL in data set [2] (strain TB-s 9); 0.03 µg/mL in data set [2] (strain TB-s 10); 0.06 µg/mL in data set [2] (strain TB-s 11); 0.125 µg/mL in [2] (strain TB-s 12); 0.06 µg/mL in data set [2] (strain TB-s 13). For the same compound, the MIC in data set [2] (strain TB-s 14), in data set [2] (strain TB-s 15), in data set [2] (strain TB-s 16), in [2] (strain TB-s 17), in [2] (strain TB-s 18) and in data set [2] (strain TB-s 19) was 0.06 µg/mL each time. Moreover, the MIC in [2] (strain TB-s 20) was 0.06 µg/mL; in data set [2] (strain TB-s 21) it was 0.06 µg/mL; in data set [2] (strain TB-s 22), 0.03 µg/mL; with S. aureus, 209P it was 0.025 µg/mL; against P. vulgaris, 08601, 0.025 µg/mL; in the data set on S. pneumoniae, J24, 0.1 µg/mL. Moreover, the MIC in the data set with S. marscecens, 10100 worked out at 0.1 µg/mL; in the data set on E. faecalis, ATCC 19433, 0.2 µg/mL; with S. aureus, 87037, 0.78 µg/mL; in the data set with P. aeruginosa, 32121, 0.2 µg/mL. In [1], the “Moisture sorption and desorption after thermal dehydration” value was “rehydrated rapidly after being dehydrated”. Besides, the figures for the “Weight Change (%)” value in data set [3] (0% RH), in [3] (52% RH) and in [3] (93% RH) were 0.00%, 0.43% and 0.61%, respectively. Further, the “Crystalline form after storage” value in [3] (0, 52 or 93% relative humidity, powder X-ray diffraction and thermal analysis) is recorded as “the crystalline form did not change”. For the same compound, in data set [4] (photo irradiation condition), the “Observation under photo irradiation condition” value was “color change and some decrease in remaining ratio”. The “Content under wet heat and dry heat condition” value in data set [4] (wet heat (40° C., 75% RH) and dry heat (50° C., 0% RH), 2 weeks) was “stable and its content was not decreased”. In addition, the “Bacterial count in the bladder” value with E. coli E77156 strain was “statistically significant decrease in bacterial count”. Moreover, in data set [5], the “Crystalline form after thermal dehydration” value was “had its crystalline state even after being dehydrated”. Besides, the “Weight change as humidity changes” value in data set [6] is reported as at most 1%.

For the compound `C[C@H]1COc2c(N3CCN(C)CC3)c(F)cc3c(=O)c(C(=O)O)cn1c23` [LVFX, levofloxacin], the minimal inhibitory concentration (MIC) with P. aeruginosa, 32104 was determined as 0.2 µg/mL (≈ 0.553 µM); against S. epidermidis, 56500, 0.39 µg/mL (≈ 1.08 µM); in the data set with E. coli NIHJ, 0.012 µg/mL (≈ 0.0332 µM); with S. aureus, 209P it was 0.2 µg/mL (≈ 0.553 µM); against P. vulgaris, 08601, 0.012 µg/mL (≈ 0.0332 µM); in the data set with S. pneumoniae, J24 it was 0.78 µg/mL (≈ 2.16 µM). In addition, the MIC in the data set with S. marscecens, 10100 is 0.1 µg/mL (≈ 0.277 µM); in the data set with E. faecalis, ATCC 19433 it was 0.78 µg/mL (≈ 2.16 µM); against S. aureus, 87037, above 6.25 µg/mL; in the data set on P. aeruginosa, 32121 it was 0.1 µg/mL (≈ 0.277 µM).

Consider `CO[C@H]1/C=C/O[C@@]2(C)Oc3c(C)c(O)c4c(O)c(c(/C=N/N5CCN(C)CC5)c(O)c4c3C2=O)NC(=O)/C(C)=C\C=C\[C@H](C)[C@H](O)[C@@H](C)[C@@H](O)[C@@H](C)[C@H](OC(C)=O)[C@@H]1C` [RFP, rifampicin], for which the MIC in data set [2] (H37RV, strain H37Rv) was found to be 0.125 µg/mL (≈ 0.152 µM); in data set [2] (strain Kurono), 0.06 µg/mL (≈ 0.0729 µM); in data set [2] (strain Ravenel) it was 0.125 µg/mL (≈ 0.152 µM); in data set [2] (strain TB-s 2), 0.03 µg/mL (≈ 0.0365 µM); in [2] (strain TB-s 3), 0.125 µg/mL (≈ 0.152 µM); in data set [2] (strain TB-s 4), 0.06 µg/mL (≈ 0.0729 µM). The MIC worked out at 0.06 µg/mL (≈ 0.0729 µM) in data set [2] (strain TB-s 5); 0.125 µg/mL (≈ 0.152 µM) in [2] (strain TB-s 6); 0.06 µg/mL (≈ 0.0729 µM) in [2] (strain TB-s 7); 0.015 µg/mL (≈ 0.0182 µM) in data set [2] (strain TB-s 8); 0.06 µg/mL (≈ 0.0729 µM) in data set [2] (strain TB-s 9); 0.06 µg/mL (≈ 0.0729 µM) in data set [2] (strain TB-s 10). In addition, the MIC in data set [2] (strain TB-s 11) was 0.06 µg/mL (≈ 0.0729 µM); in [2] (strain TB-s 12), 0.125 µg/mL (≈ 0.152 µM); in data set [2] (strain TB-s 13) it was 0.06 µg/mL (≈ 0.0729 µM); in [2] (strain TB-s 14), 0.03 µg/mL (≈ 0.0365 µM); in data set [2] (strain TB-s 15) it was 0.06 µg/mL (≈ 0.0729 µM); in data set [2] (strain TB-s 16), 0.06 µg/mL (≈ 0.0729 µM). For the same compound, the MIC in data set [2] (strain TB-s 17) worked out at 0.06 µg/mL (≈ 0.0729 µM); in [2] (strain TB-s 18) it was 0.03 µg/mL (≈ 0.0365 µM); in data set [2] (strain TB-s 19) it was 0.125 µg/mL (≈ 0.152 µM); in [2] (strain TB-s 20), 0.25 µg/mL (≈ 0.304 µM); in [2] (strain TB-s 21), 0.03 µg/mL (≈ 0.0365 µM); in [2] (strain TB-s 22), 0.015 µg/mL (≈ 0.0182 µM).
